{"source": "paper PMC12592502", "about": "“Unraveling the mechanisms behind the enhanced efficacy of β-lactam-based sideromycins” (Communications Biology, 2025)", "key": {"E. coli ΔcirA": {"test_system": "E. coli ΔcirA", "assay": "MIC, Keio mutant", "type": "cell-based, Escherichia coli", "conditions": "Escherichia coli", "method": "(§1) All bacterial strains (see description and sources Table S1) were stored at −80 °C, and grown on tryptone soya agar (TSA) at 35 °C. The iron-deprived (ID)-MHBCA (cation-adjusted Muller-Hinton Broth, Becton Dickinson, Mississauga, ON, Canada) medium was prepared as reported by refs. [21],[50]. Briefly, MHBCA was treated with 10% Chelex® 50-100 mesh (Sigma) and stirred for 6 h at room temperature. The resin was removed by filtration. Divalent Ca^2+ (CaCl2), Mg^2+ (MgCl2), and Zn^2+(ZnSO4), were then added in the iron-depleted medium at 22, 12, and 1 μg/ml respectively. Finally, the pH was adjusted to 7.3, and the medium was sterilized with a 0.2-μm filter. Regular MHBCA (i.e., not treated with Chelex®) was used to compare the inhibitory activity of conjugates in iron-sufficient conditions.\n(§2) Minimal inhibitory concentrations (MICs) were performed using a broth microdilution technique according to the Clinical and Laboratory Standards Institute (CLSI) guidelines. MICs were determined in MHBCA and in ID-MHBCA. To check the impact of β-lactamases, MICs in the presence of a β-lactamase inhibitor were also determined. The inhibitor was homogenized at 2X the final concentration and added to the bacterial inoculum just before distributing cells into the wells containing the drug dilutions. The final concentration of each inhibitor was 4 μg/mL for clavulanic acid (tested against K. pneumoniae) and 200 μg/mL for 3-aminophenylboronic acid (tested against P. aeruginosa and A. baumannii)."}, "E. coli ΔfhuA": {"test_system": "E. coli ΔfhuA", "assay": "MIC, Keio mutant", "type": "cell-based, Escherichia coli", "conditions": "Escherichia coli", "method": "as §1, §2"}, "E. coli Δfiu": {"test_system": "E. coli Δfiu", "assay": "MIC, Keio mutant", "type": "cell-based, Escherichia coli", "conditions": "Escherichia coli", "method": "as §1, §2"}, "E. coli MC4100": {"test_system": "E. coli MC4100", "assay": "Bactericidal effect in the uptake assay (CFU counts)", "type": "cell-based, Escherichia coli", "conditions": "time 0 h, 200 μM drug, single replicates", "from_the_text": "The bactericidal effect determined at each time point was the difference in the concentration of bacteria in the assay tube with antibiotic and that measured in the growth control tube without drug (ΔLog10 CFU/mL). The normal distribution of the data was verified with the Shapiro–Wilk test and the statistical analysis was a comparison of repeated measures ANOVA (*p ≤ 0.05, **p ≤ 0.01, ***p ≤ 0.001) between each time point relatively to the 0-h time point."}, "K. pneumoniae ATCC 13883": {"test_system": "K. pneumoniae ATCC 13883", "assay": "MIC, broth microdilution (CLSI)", "type": "cell-based, Klebsiella pneumoniae", "conditions": "for MIC with β-lactamase inhibitor (βI): + 4 μg/mL clavulanic acid; for MIC: Klebsiella pneumoniae", "method": "as §1, with “conditions. The resin used for Chelex treatment was always fresh and had never been regenerated, ensuring consistent iron removal.” for “conditions.”\nas §2"}, "[1]": {"test_system": "P. aeruginosa 2302 MexAB, MexCD, MexEF upregulated", "assay": "MIC, efflux pump overexpressing strain", "type": "cell-based, Pseudomonas aeruginosa", "conditions": "Pseudomonas aeruginosa", "method": "as §2"}, "A. baumannii ATCC 19606": {"test_system": "A. baumannii ATCC 19606", "assay": "MIC, broth microdilution (CLSI)", "type": "cell-based, Acinetobacter baumannii", "method": "as §1, with “conditions. The resin used for Chelex treatment was always fresh and had never been regenerated, ensuring consistent iron removal.” for “conditions.”\nas §2"}, "[2]": {"test_system": "P. aeruginosa 1625 ΔmexAB-oprM, ΔmexEF-oprN", "assay": "MIC, efflux pump mutant", "type": "cell-based, Pseudomonas aeruginosa", "conditions": "Pseudomonas aeruginosa", "method": "as §2"}, "[3]": {"test_system": "P. aeruginosa 1624 ΔmexCD-oprJ, ΔmexEF-oprN", "assay": "MIC, efflux pump mutant", "type": "cell-based, Pseudomonas aeruginosa", "conditions": "Pseudomonas aeruginosa", "method": "as §2"}, "E. coli ATCC 25922": {"test_system": "E. coli ATCC 25922", "assay": "MIC, broth microdilution (CLSI)", "type": "cell-based, Escherichia coli", "conditions": "for MIC: Escherichia coli", "method": "as §1, §2"}, "E. coli lptD4213": {"test_system": "E. coli lptD4213", "assay": "MIC, hyperpermeable mutant", "type": "cell-based, Escherichia coli", "conditions": "Escherichia coli", "method": "as §1, with “conditions. The resin used for Chelex treatment was always fresh and had never been regenerated, ensuring consistent iron removal.” for “conditions.”\nas §2"}, "[4]": {"conditions": "ID-MHBCA, 0 and 1 µg/mL supplemental iron (Table S2)"}, "[5]": {"conditions": "ID-MHBCA, 1 versus 0 µg/mL supplemental iron (peer review file table)"}}, "note": "“And” between values parts separate entries of the source, which are not always exact repeats. Identical values can stand only once. Like-named read-outs stand apart in the source and are kept apart here."}
{"smiles": "N[C@@H](C(=O)N[C@@H]1C(=O)N2C(C(=O)O)=C(Cl)CS[C@H]12)c1ccccc1", "note": "[CEF, cefaclor, reference compound]", "values": [{"measurement": "MIC", "setting": "E. coli ΔcirA; ID-MHBCA", "value": 25, "unit": "µM"}, {"measurement": "MIC", "setting": "E. coli ΔcirA; MHBCA", "value": 13, "unit": "µM"}, {"measurement": "MIC", "setting": "E. coli ΔfhuA; ID-MHBCA", "value": 13, "unit": "µM"}, {"measurement": "MIC", "setting": "E. coli ΔfhuA; MHBCA", "value": 13, "unit": "µM"}, {"measurement": "MIC", "setting": "E. coli Δfiu; ID-MHBCA", "value": 13, "unit": "µM"}, {"measurement": "MIC", "setting": "E. coli Δfiu; MHBCA", "value": 13, "unit": "µM"}, {"measurement": "dCFU (Δlog10 CFU/mL, count with drug minus growth control)", "setting": "E. coli MC4100; ID FALSE (MHBCA)", "value": "0.07784 and -0.144 and -0.0313"}, {"measurement": "dCFU (Δlog10 CFU/mL, count with drug minus growth control)", "setting": "E. coli MC4100; ID TRUE (ID-MHBCA)", "value": "-0.00308 and -0.2509 and -0.2737"}, {"measurement": "MIC ratio 0/1", "setting": "K. pneumoniae ATCC 13883; [4]", "value": 2}, {"measurement": "MIC ratio 1/0", "setting": "K. pneumoniae ATCC 13883; [5]", "value": 2}, {"measurement": "MIC with β-lactamase inhibitor (βI)", "setting": "K. pneumoniae ATCC 13883; ID-MHBCA", "value": 1.6, "unit": "µM"}, {"measurement": "MIC", "setting": "K. pneumoniae ATCC 13883; ATCC13883, ID-MHBCA (−), 0 µg/mL supplemental iron", "value": 3.1, "unit": "µM"}, {"measurement": "MIC", "setting": "K. pneumoniae ATCC 13883; ATCC13883, ID-MHBCA + 0.1 µg/mL supplemental iron", "value": 3.1, "unit": "µM"}, {"measurement": "MIC", "setting": "K. pneumoniae ATCC 13883; ATCC13883, ID-MHBCA + 1 µg/mL supplemental iron", "value": 6.3, "unit": "µM"}, {"measurement": "MIC", "setting": "K. pneumoniae ATCC 13883; ATCC13883, MHBCA (+)", "value": 3.1, "unit": "µM"}, {"measurement": "MIC with β-lactamase inhibitor (βI)", "setting": "K. pneumoniae ATCC 13883; MHBCA", "value": 1.6, "unit": "µM"}, {"measurement": "MIC", "setting": "[1]", "value": "> 200", "unit": "µM"}, {"measurement": "MIC", "setting": "A. baumannii ATCC 19606; Acinetobacter baumannii, ATCC19606, ID-MHBCA (−), 0 µg/mL supplemental iron, read-out: MIC", "value": "> 200", "unit": "µM"}, {"measurement": "MIC", "setting": "A. baumannii ATCC 19606; Acinetobacter baumannii, ATCC19606, ID-MHBCA + 1 µg/mL supplemental iron, read-out: MIC", "value": "> 200", "unit": "µM"}, {"measurement": "MIC", "setting": "A. baumannii ATCC 19606; Acinetobacter baumannii, ATCC19606, ID-MHBCA, + 200 μg/mL APB, read-out: MIC with β-lactamase inhibitor (βI)", "value": "> 200", "unit": "µM"}, {"measurement": "MIC", "setting": "A. baumannii ATCC 19606; Acinetobacter baumannii, ATCC19606, MHBCA (+), no inhibitor, read-out: MIC", "value": "> 200", "unit": "µM"}, {"measurement": "MIC", "setting": "A. baumannii ATCC 19606; Acinetobacter baumannii, ATCC19606, MHBCA, + 200 μg/mL APB, read-out: MIC with β-lactamase inhibitor (βI)", "value": "> 200", "unit": "µM"}, {"measurement": "MIC", "setting": "A. baumannii ATCC 19606; ID-MHBCA (−), 0 µg/mL supplemental iron, read-out: MIC", "value": ">200", "unit": "µM"}, {"measurement": "MIC", "setting": "A. baumannii ATCC 19606; MHBCA (+), no inhibitor, read-out: MIC", "value": ">200", "unit": "µM"}, {"measurement": "MIC in combination with PAβN", "setting": "A. baumannii ATCC 19606; MHBCA, + 25 µg/mL PAβN", "value": "> 200", "unit": "µM"}, {"measurement": "MIC", "setting": "[2]", "value": "> 200", "unit": "µM"}, {"measurement": "MIC", "setting": "[3]", "value": "> 200", "unit": "µM"}, {"measurement": "MIC", "setting": "E. coli ATCC 25922; ATCC25922, ID-MHBCA + 0.1 µg/mL supplemental iron", "value": 3.1, "unit": "µM"}, {"measurement": "MIC", "setting": "E. coli ATCC 25922; ATCC25922, MHBCA (+)", "value": 3.1, "unit": "µM"}, {"measurement": "MIC", "setting": "E. coli ATCC 25922; ATCC25922, iron-deprived ID-MHBCA (−), 0 µg/mL supplemental iron", "value": 3.1, "unit": "µM"}, {"measurement": "MIC ratio 0/1", "setting": "E. coli ATCC 25922; [4]", "value": 1}, {"measurement": "MIC ratio 1/0", "setting": "E. coli ATCC 25922; [5]", "value": 1}, {"measurement": "MIC", "setting": "E. coli lptD4213; LPTD4213, lptD4213, ID-MHBCA (−)", "value": 3.1, "unit": "µM"}, {"measurement": "MIC", "setting": "E. coli lptD4213; LPTD4213, lptD4213, MHBCA (+)", "value": 3.1, "unit": "µM"}]}
